Measured values from patent publication US20080194585A1, “Fungicidal Pyrazine Derivatives” (priority 2005, published 2008).
Marks after values point to notes of the source that are not given here.

Key:
[1] = test system: Erysiphe graminis f. sp. tritici; assay: Test L: wheat powdery mildew, preventive spray on wheat seedlings
[2] = test system: fusarium graminearium; assay: Test I: wheat head scab, preventive spray on wheat seedlings; conditions: 200 ppm
Method: (the causal agent of wheat head scab) and incubated in a saturated atmosphere at 20° C. for 72 h, and then moved to a growth chamber at 22° C. for 5 days, after which disease ratings were made.

[3] = test system: Septoria nodorum; assay: Test H: wheat glum blotch, preventive spray on wheat seedlings
Method: (the causal agent of wheat glum blotch) and incubated in a saturated atmosphere at 20° C. for 48 h, and then moved to a growth chamber at 22° C. for 5 days, after which disease ratings were made.

[4] = test system: Rhizoctonia oryzae; assay: Test G: turf brown patch, preventive spray on creeping bent grass seedlings
Method: (the causal agent of turf brown patch) and incubated in a saturated atmosphere at 27° C. for 24 h, and then moved to a growth chamber at 27° C. for 5 days, after which disease ratings were made.

[5] = test system: Pythium aphanidermatum; assay: Test A: bluegrass pythium blight, preventive spray on bluegrass seedlings; conditions: 200 ppm
[6] = test system: Phytophthora infestans; assay: whole plant or invertebrate; assay type: in vivo; conditions: 200 ppm
[7] = test system: Colletotrichum orbiculare; assay: Test B: cucumber Colletotrichum anthracnose, preventive spray on cucumber seedlings
[8] = test system: Plasmopara viticola; assay: Test D: grape downy mildew, spray after inoculation of grape seedlings; assay type: in vivo; conditions: 200 ppm
Text: Upon removal, disease ratings were made. […] A dash (-) indicates no test results.

[9] = test system: Botrytis cinerea; assay: Test E: tomato botrytis, preventive spray on tomato seedlings
[10] = test system: Septoria tritici; assay: Test J: wheat leaf blotch, preventive spray on wheat seedlings; assay type: in vivo
Text: A dash (-) indicates no test results.

[11] = test system: Puccinia recondita f. sp. tritici; assay: Test K: wheat leaf rust, preventive spray on wheat seedlings

| SMILES | Test L disease control rating ([1]; 200 ppm) [%] | Test I disease control rating [2] [%] | Test H disease control rating ([3]; 200 ppm) [%] | Test G disease control rating ([4]; 200 ppm) [%] | Test A disease control rating [5] [%] | Test F disease control rating [6] [%] | Test B disease control rating ([7]; 200 ppm) [%] | Test D disease control rating [8] [%] | Test E disease control rating ([9]; 200 ppm) [%] | Test J disease control rating ([10]; 200 ppm) [%] | Test K disease control rating ([11]; 200 ppm) [%] | Test L disease control rating ([1]; 40 ppm (*)) | Test H disease control rating ([3]; 40 ppm (*)) | Test G disease control rating ([4]; 40 ppm (*)) | Test B disease control rating ([7]; 40 ppm (*)) | Test E disease control rating ([9]; 40 ppm (*)) | Test J disease control rating ([10]; 40 ppm (*)) | Test K disease control rating ([11]; 40 ppm (*)) |
| --- | --- | --- | --- | --- | --- | --- | --- | --- | --- | --- | --- | --- | --- | --- | --- | --- | --- | --- |
| CCCn1c(-c2c(F)cccc2F)c(Cl)nc(-n2cccn2)c1=O [compound 27] | 100 | 0 | 100 | 67 | 0 | 0 | 99 | 47 | 100 | 100 | 100 | – | – | – | – | – | – | – |
| CCCCCn1c(-c2c(F)cccc2F)c(Cl)nc(-n2cccn2)c1=O [compound 28] | 97 | 0 | 99 | 31 | 0 | 0 | 98 | 0 | 92 | 100 | 97 | – | – | – | – | – | – | – |
| CC(C)C(C)n1c(-c2c(F)cccc2F)c(Cl)nc(-n2cccn2)c1=O (stereo not drawn) [compound 29] | 98 | 0 | 99 | 95 | 0 | 0 | 99 | 0 | 80 | 100 | 100 | – | – | – | – | – | – | – |
| C=C(C)Cn1c(-c2c(F)cccc2F)c(Cl)nc(-n2cccn2)c1=O [compound 30] | 100 | 0 | 100 | 98 | 0 | 0 | 99 | 0 | 99 | 100 | 100 | – | – | – | – | – | – | – |
| O=c1c(-n2cccn2)nc(Cl)c(-c2c(F)cccc2F)n1CC1CCCCC1 [compound 31] | 69 | 0 | 73 | 0 | 0 | 0 | 0 | 0 | 97 | 100 | 88 | – | – | – | – | – | – | – |
| CCC(C)Cn1c(-c2c(F)cccc2F)c(Cl)nc(-n2ccnn2)c1=O (stereo not drawn) [compound 60] | – | 0 | – | – | 0 | 0 | – | 0 | – | – | – | 0* % | 0* % | 0* % | 0* % | 95* % | 40* % | 68* % |
| CCC(C)Cn1c(-c2c(F)cccc2F)c(Cl)nc(-n2ccnc2)c1=O (stereo not drawn) [compound 61] | 0 | 0 | 0 | 0 | 0 | 0 | 0 | 0 | 0 | 40 | 0 | – | – | – | – | – | – | – |
| CCC(C)Cn1c(-c2c(F)cccc2F)c(Cl)nc(-n2nc(C)cc2C)c1=O (stereo not drawn) [compound 62] | 0 | 0 | 0 | 0 | 0 | 0 | 0 | 0 | 31 | 15 | 83 | – | – | – | – | – | – | – |
| CCC(C)Cn1c(-c2c(F)cccc2F)c(Cl)nc(-n2ccc(C(F)(F)F)n2)c1=O (stereo not drawn) [compound 63] | 0 | 0 | 0 | 72 | 0 | 0 | 0 | 0 | 0 | 90 | 89 | – | – | – | – | – | – | – |
| CCC(C)Cn1c(-c2c(F)cccc2F)c(Cl)nc(-n2nc(C)cc2C(F)(F)F)c1=O (stereo not drawn) [compound 64] | 0 | 0 | 0 | 24 | 0 | 0 | 0 | 16 | 54 | 71 | 97 | – | – | – | – | – | – | – |
| CCC(C)Cn1c(-c2c(F)cccc2F)c(Cl)nc(-n2ccc(Br)n2)c1=O (stereo not drawn) [compound 65] | 0 | 0 | 0 | 83 | 0 | 0 | 33 | 0 | 99 | 100 | 98 | – | – | – | – | – | – | – |
| CC(C)Cn1c(-c2c(F)cccc2F)c(Cl)nc(NN=C2CCCC2)c1=O [compound 73] | 0 | 0 | 0 | 0 | 0 | 0 | 0 | 0 | 97 | 59 | 80 | – | – | – | – | – | – | – |
| Cc1ccc(-c2c(Cl)nc(-n3cncn3)c(=O)n2CC(C)C)c(C)c1 [compound 79] | 92 | 0 | 100 | 46 | 0 | 0 | 83 | 0 | 100 | 100 | 97 | – | – | – | – | – | – | – |
| CC(C)Cn1c(-c2cc(Br)c3c(c2)OCO3)c(Cl)nc(-n2cccn2)c1=O [compound 89] | 0 | 0 | 0 | 0 | 0 | 0 | 0 | 0 | 0 | 0 | 0 | – | – | – | – | – | – | – |
| CC(C)Cn1c(-c2c(F)cccc2F)c(Cl)nc(-c2cnn(C)c2)c1=O [compound 100] | 13 | 0 | 0 | 0 | 0 | 0 | 0 | 0 | 0 | 3 | 26 | – | – | – | – | – | – | – |
| CC(C)Cn1c(-c2c(F)cccc2F)c(Cl)nc(-c2nccn2C)c1=O [compound 102] | 0 | 0 | 0 | 0 | 0 | 0 | 0 | 0 | 0 | 0 | 0 | – | – | – | – | – | – | – |
| CC(C)Cn1c(-c2c(F)cccc2F)c(Cl)nc(-c2ccnn2C)c1=O [compound 103] | 0 | 0 | 0 | 0 | 0 | 0 | 0 | 0 | 0 | 3 | 0 | – | – | – | – | – | – | – |
| O=c1c(-n2cncn2)nc(Cl)c(-c2c(F)cccc2F)n1Cc1ccccc1 [compound 105] | 0 | 0 | 64 | 24 | 0 | 0 | 0 | 0 | 100 | 98 | 100 | – | – | – | – | – | – | – |
